Measured values taken from the CombiSolv-Exp solvation set (Vermeire and Green 2021).

Assay: solvent given as SMILES

CC=CCCC
Details | solvation free energy, 298 K [kcal/mol]
in NC=O | -1.06
in OCCO | -1.25
in OCCOCCO | -1.92
in OCCOCCOCCO | -2.02

C=CC(C)=CCC=C(C)C
Details | solvation free energy, 298 K [kcal/mol]
in O | -0.5

O=C1CCCO1
Details | solvation free energy, 298 K [kcal/mol]
in CC(C)CC(C)(C)C | -4.99

ClC(Cl)C(Cl)Cl
Details | solvation free energy, 298 K [kcal/mol]
in CC(C)=O | -6.28
in CCCCCCCCCCCCCCCC | -5.21
in CCCCCCCCO | -5.84
in ClC(Cl)(Cl)Cl | -5.93
in ClCCCl | -6.37
in O | -2.45
in [2H]O[2H] | -2.59

Cc1ccnc(C)c1
Details | solvation free energy, 298 K [kcal/mol]
in O | -4.86

Cc1ccccc1C(=O)N(O)c1ccccc1
Details | solvation free energy, 298 K [kcal/mol]
in O | -11.5

CCCCCCCCO
Details | solvation free energy, 298 K [kcal/mol]
in CC(C)CC(C)(C)C | -6.52
in CCC(C)=O | -8.2
in CCCCCCC | -6.38
in CCCCCCCCCCCCCCCC | -6.17
in CCCCCCCCCO | -8.45
in CCCCCCO | -8.58
in CCCCCl | -7.22
in CO | -8.03
in NC=O | -6.49
in O | -4.07

CCCCCC(=O)CC(=O)CCCCC
Details | solvation free energy, 298 K [kcal/mol]
in O | -3.68

CCCCCCCCCCO
Details | solvation free energy, 298 K [kcal/mol]
in CC(C)O | -9.77
in CCCCCC | -7.69
in CCCCCCCC | -7.87
in CCCCCCCCCO | -9.64
in CCCO | -9.73
in O | -3.69

CC1(C)C2=CCCC(C)(C)C23CCC1C3 (centres undefined)
Details | solvation free energy, 298 K [kcal/mol]
in O | 0.71

C=C1CCC2C1C1C(C(C)C)CCC21C (centres undefined)
Details | solvation free energy, 298 K [kcal/mol]
in O | 1.19

O=Cc1ccco1
Details | solvation free energy, 298 K [kcal/mol]
in CCCCCCCC | -4.27
in CCCCCCCCCC | -4.51
in CCOC(C)=O | -6.3
in O | -5.28

CCc1cnccn1
Details | solvation free energy, 298 K [kcal/mol]
in O | -5.45

CC(C)CC(=O)CC(=O)CC(C)C
Details | solvation free energy, 298 K [kcal/mol]
in O | -4.42

O
Details | solvation free energy, 298 K [kcal/mol]
in BrC(Br)Br | -1.76
in BrC(Br)C(Br)Br | -1.63
in BrCCBr | -1.98
in C1CCCCC1 | -0.54
in C1COCCO1 | -4.37
in C=CCCCCCCC=C | -1.19
in C=CCCCCCCCCCCCCCC | -0.63
in CC(C)=O | -4.34
in CC(C)C | -0.64
in CC(C)C(C)C | -0.56
in CC(C)C(C)C(C)C | -0.49
in CC(C)CC(C)(C)C | -0.52
in CC(C)CC(C)C | -0.51
in CC(C)CCC(C)(C)C | -0.49
in CCC | -0.66
in CCC(C)(C)C | -0.51
in CCC(C)=O | -4.02
in CCC(C)C | -0.56
in CCC(C)CC | -0.59
in CCCC(C)C | -0.55
in CCCC(C)CC | -0.47
in CCCCC | -0.64
in CCCCC(=O)CC | -3.3
in CCCCCC | -0.67
in CCCCCCC | -0.72
in CCCCCCCC | -0.73
in CCCCCCCCC | -0.53
in CCCCCCCCCC | -0.48
in CCCCCCCCCCC | -0.47
in CCCCCCCCCCCC | -0.44
in CCCCCCCCCCCCC | -0.4
in CCCCCCCCCCCCCCCC | -0.42
in CCCCCCCCCCO | -3.98
in CCCCCCCCO | -4.15
in CCCCO | -4.5
in CCCCOCCO | -4.6
in CCCO | -4.76
in CCCOCC(C)O | -4.29
in CCO | -5.05
in CN(C)C=O | -5.55
in CNC(C)=O | -5.8
in CNC=O | -5.28
in CO | -5.59
in ClC(Cl)(Cl)Cl | -1.15
in ClC(Cl)=C(Cl)Cl | -1.15
in NC=O | -5.67
in S=C=S | -1.01

C1COCCOCCOCCOCCOC1
Details | solvation free energy, 298 K [kcal/mol]
in Cc1cccc(C)c1 | -11.4
in O | -12.5

CCCCCCCl
Details | solvation free energy, 298 K [kcal/mol]
in O | 0

Cc1c(C(=O)O)cc([N+](=O)[O-])cc1[N+](=O)[O-]
Details | solvation free energy, 298 K [kcal/mol]
in C1CCOC1 | -17.5
in C1COCCO1 | -17.5
in CC(C)(C)O | -16
in CC(C)CCO | -15.8
in CC(C)CO | -15.7
in CC(C)O | -16.2
in CCC(C)O | -16.1
in CCCC(C)O | -15.9
in CCCCCCCCCCO | -15.3
in CCCCCCCCO | -15.6
in CCCCCCCO | -15.9
in CCCCCCO | -15.8
in CCCCCO | -16
in CCCCO | -16.1
in CCCCOC(C)=O | -16.2
in CCCO | -16.2
in CCOC(C)=O | -16.4
in COC(C)=O | -16.7
in O | -13.6
